Values joined by “and” are separate entries in the source; they are usually repeats but may differ in a detail not shown here. Identical values can stand only once.
Test system: 817829-284-R-J1-PDC complex spheroid viability
Assay: Anticancer human tumor 817829-284-R-J1-PDC patient-derived colon adenocarcinoma cell line growth inhibition [POLQ]
Settings: for viability, T/C: stronger effect = lower value
Procedure: Multicellular complex tumor spheroid response to Polymerase (POL) inhibitors (novobiocin, ART-558, RP6685) in combination with a variety of drugs and investigational agents in selected tumor cell lines
The POL inhibitors (novobiocin, ART-558, and RP6685) were evaluated both individually and in combination with standard of care and investigational anticancer small molecules within a complex spheroid model of solid tumors. . Complex spheroids include a stromal component modeled by human endothelial cells (HUVEC) and fibroblasts modeled by human mesenchymal stem cells (MSCs). The concentration ranges selected for each drug and investigational agent were based upon clinically achievable concentrations if the clinical Cmax of the agent was known.
Compounds. The drugs and investigational agents: novobiocin (NSC847541), ART-558 (NSC835418), RP-6685 (NSC848927), peposertib (NSC802822), ceralasertib (NSC780249), elimusertib (NSC800525), camonsertib (NSC841442), AZD-1390 (NSC803789), olaparib (NSC753686), talazoparib (NSC767125), rucaparib (NSC756644), sotorasib (NSC818433), MRTX-1133 (NSC836407), SN-38 (NSC673596), topotecan (NSC609699), epotoside (NSC141540), doxorubicin (NSC123127), gemcitabine (NSC613327), 5-fluorouracil (NSC19893), paclitaxel (NSC125973), vemurafenib (NSC761431), MSA-2 (NSC828583), SN-011 (NSC837082), adavosertib (NSC754352), prexasertib (NSC758257), carboplatin (NSC241240) and oxaliplatin (NSC266046), were obtained from the National Cancer Institute (NCI) Developmental Therapeutics Program Chemical Repository (21). The FDA-approved anticancer drug set is available from the Developmental Therapeutics Program at https://dtp.cancer.gov/organization/dscb/obtaining/. […] The stock solutions were prepared in dimethyl sulfoxide (DMSO, Sigma-Aldrich, St. Louis, MO, cat. D2650), except for the platinum compounds which were prepared in saline (Quality Biological, Gaithersburg, MD, cat. 114-055-101), at 800-fold the tested concentration and stored at -70 degrees C prior to their use. All drugs and investigational agents were tested over a range starting from a high concentration at or near the clinical Cmax and decreasing in half-log increments. If the clinical Cmax for an agent had not been determined, the highest concentration tested was 10 microM, except for SN-38, which was tested at a high concentration of 1 microM.
Cell Culture. All cells were maintained in an incubator at 37 degrees C and 5% CO2 with 95% humidity. The PDC lines were cultured according to standard operating procedures established by the NCI PDMR (https://pdmr.cancer.gov). Table 3 of the manuscript, lists the cell lines along with the number of the three cell types plated to form the mct-spheroids and media for tumor cell growth. After thawing, all PDC lines, except 997537-175-T-J1-PDC and 415267-285-R-J2-PDC, were cultured in Matrigel-coated flasks prepared with a working solution of 1X Ham's F-12 nutrient mix, without supplementation (Thermo Fisher Scientific, cat. 11765054), 100 U/mL penicillin-streptomycin (Thermo Fisher Scientific, cat. 15140122), and 2.5% Matrigel (Corning Inc., Corning, NY, cat. 354248) for the first three passages. The two PDC lines 997537-175-T-J1-PDC and 415267-285-R-J2-PDC were cultured on uncoated flasks. The 857933-349-R-J2-PDC line was cultured in 6C/Colon 1B media containing advanced DMEM/F-12 (Thermo Fisher Scientific, cat. 12634028), 10 mM HEPES (Thermo Fisher Scientific, cat. 15630080), 1X GlutaMAX supplement (Thermo Fisher Scientific, cat. 35050061), 0.1 mg/mL primocin (InvivoGen, San Diego, CA, cat. ant-pm-2), 10% defined fetal bovine serum, heat inactivated (HyClone Laboratories Inc., Logan, UT, cat. SH30070.03HI), 50% L-WRN conditioned media (ATCC, cat. CRL-3276), 1.25 mM N-Acetyl-L-cysteine (Sigma-Aldrich, cat. A9165), 10 mM nicotinamide (Sigma-Aldrich, cat. N0636), 1X B-27 supplement (Thermo Fisher Scientific, cat. 17504044), 1X N-2 supplement (Thermo Fisher Scientific, cat. […]
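Also: spheroids exposed to compounds for 7 days.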
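For viability, T/C in this document: 100% = DMSO vehicle-treated spheroids.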

In the case of `O=c1[nH]cc(F)c(=O)[nH]1` + Cc1cccc(N(C)C(=O)C2C(O)CCN2c2nc(C)cc(C(F)(F)F)c2C#N)c1, the IC50 (curve of first compound, second compound 0.0316 µM) is reported as 1.98 µM, the IC50 (curve of first compound, second compound 0.1 µM) is reported as 3.12 µM and the IC50 (curve of first compound, second compound 0.316 µM) is reported as greater than 10 µM. The IC50 (curve of first compound, second compound 1 µM) was 3.1 µM, the IC50 (curve of first compound, second compound 3.16 µM) was 3.65 µM and the IC50 (curve of first compound, second compound 10 µM) was 2.53 µM. For the same compound, the viability, T/C (second compound 0.0316 µM, first compound 0.0316 µM) was 98.2%, the viability, T/C (second compound 0.0316 µM, first compound 0.1 µM) was 119% and the viability, T/C (second compound 0.0316 µM, first compound 0.316 µM) was 68.2%. For the same compound, the viability, T/C (second compound 0.0316 µM, first compound 1 µM) was 72.5%, the viability, T/C (second compound 0.0316 µM, first compound 3.16 µM) was 34.8% and the viability, T/C (second compound 0.0316 µM, first compound 10 µM) was 38.9%. For the same compound, the viability, T/C (second compound 0.1 µM, first compound 0.0316 µM) was 91.4%, the viability, T/C (second compound 0.1 µM, first compound 0.1 µM) was 126% and the viability, T/C (second compound 0.1 µM, first compound 0.316 µM) was 110%. For the same compound, the viability, T/C (second compound 0.1 µM, first compound 1 µM) was 75.4%, the viability, T/C (second compound 0.1 µM, first compound 3.16 µM) was 55.9% and the viability, T/C (second compound 0.1 µM, first compound 10 µM) was 42.1%. It also gave a viability, T/C (second compound 0.316 µM, first compound 0.0316 µM) of 92.1%, a viability, T/C (second compound 0.316 µM, first compound 0.1 µM) of 98% and a viability, T/C (second compound 0.316 µM, first compound 0.316 µM) of 106%. It also gave a viability, T/C (second compound 0.316 µM, first compound 1 µM) of 74.4%, a viability, T/C (second compound 0.316 µM, first compound 3.16 µM) of 55.4% and a viability, T/C (second compound 0.316 µM, first compound 10 µM) of 45.8%. For the same compound, the viability, T/C (second compound 1 µM, first compound 0.0316 µM) was 72.5%, the viability, T/C (second compound 1 µM, first compound 0.1 µM) was 118% and the viability, T/C (second compound 1 µM, first compound 0.316 µM) was 98.8%. The viability, T/C (second compound 1 µM, first compound 1 µM) was 75.1%, the viability, T/C (second compound 1 µM, first compound 3.16 µM) was 52.7% and the viability, T/C (second compound 1 µM, first compound 10 µM) was 39.9%. It also gave a viability, T/C (second compound 3.16 µM, first compound 0.0316 µM) of 89.9%, a viability, T/C (second compound 3.16 µM, first compound 0.1 µM) of 112% and a viability, T/C (second compound 3.16 µM, first compound 0.316 µM) of 102%. For the same compound, the viability, T/C (second compound 3.16 µM, first compound 1 µM) was 77%, the viability, T/C (second compound 3.16 µM, first compound 3.16 µM) was 54.7% and the viability, T/C (second compound 3.16 µM, first compound 10 µM) was 36.3%. The viability, T/C (second compound 10 µM, first compound 0.0316 µM) was 101%, the viability, T/C (second compound 10 µM, first compound 0.1 µM) was 91.8% and the viability, T/C (second compound 10 µM, first compound 0.316 µM) was 94.1%. The viability, T/C (second compound 10 µM, first compound 1 µM) was 60.4%, the viability, T/C (second compound 10 µM, first compound 3.16 µM) was 52% and the viability, T/C (second compound 10 µM, first compound 10 µM) was 42.6%.
With `COc1cc2cc(C(=O)CCC(=O)O)sc2cc1OC` the viability, T/C (compound 0.0316 µM) was 114% and 112% and 90.4%, the viability, T/C (compound 0.1 µM) was 88.4% and 107% and 83.7% and the viability, T/C (compound 0.316 µM) was 94% and 105% and 84%. For the same compound, the viability, T/C (compound 1 µM) was 81.1% and 89.5% and 102%, the viability, T/C (compound 3.16 µM) was 100% and 110% and 98.6% and the viability, T/C (compound 10 µM) was 88.8% and 101% and 63.2%. It also gave an IC50 (curve of compound) greater than 10 µM.
